# Patent US9295714B2, “Apparatus and method for transdermal delivery of parathyroid hormone agents” (Alza Corporation, priority 2004, dated 2016)
# What was measured:
# [1] = Pharmacokinetics of hPTH (1-34) after IV, SC and coated microprojection array administration; type: in vivo, hairless guinea pig; conditions: for dose absorbed/delivered: AUC relative to IV
# [2] = Plasma PTH after subcutaneous Forteo vs coated microprojection transdermal delivery; type: in vivo, human
# Description: (§1) In this example, transdermal delivery of a PTH-based agent using a coated microprojection member was compared to conventional, subcutaneous delivery of teriparatide PTH (Forteo™). A dose-finding study was conducted with […], young females that received two treatments, separated by at least five days, according to randomly assigned sequence of 20 μg subcutaneous delivery of Forteo™ and 30 μg transdermal delivery of a PTH-based agent by coated microprojection. Bioavailability of transdermally delivered PTH was determined in 20 healthy, young females by administering two treatments, separated by at least five day, according to randomly assigned sequence of 40 μg subcutaneous delivery of Forteo™ and 30 μg transdermal delivery of a PTH-based agent by coated microprojection.
# In the dose-finding study, two participants dropped out, eleven subjects participated and eight generated usable data. It was determined that three subjects had measurable PTH plasma levels following subcutaneous injection and eight subjects had measurable PTH plasma levels following transdermal delivery.
# [3] = tested on: urinary cAMP; experiment: Urinary cAMP excretion after subcutaneous vs transdermal delivery; type: in vivo, human
# Description: as §1
# FIG. 12 further reflects a preferred pulsatile concentration profile of the PTH agent, i.e., rapid on-set and rapid off-set after reaching Cmax.
# [4] = Solubility in water; type: physicochemical; conditions: at pH 5
# From the text: Referring now to FIG. 10, there is shown a superposition of the mole ratios for acetic acid and the neutral form of hPTH (1-34). […] At pH 5, negligible amounts of PTH are present as PTH zero net charge (PTH 0). The PTH is also highly soluble in water at concentrations in excess of 20%. During drying and subsequent storage, the free acetic acid will evaporate inherently resulting in formation of the water insoluble PTH 0. Subsequent reconstitution in water will not allow total solubilization of PTH. Accordingly, the use of a low volatility counterion provides a solid soluble formulation of PTH as long as the pH is maintained at least 2.5 pH units, preferably 3 pH units, below the pI of PTH. Preferably, this can be achieved by providing at least about two low volatility counterions to each molecule of PTH.
smiles,measurement,setting,value
CC[C@H](C)[C@H](NC(=O)[C@H](CCC(=O)O)NC(=O)[C@H](CO)NC(=O)[C@@H](NC(=O)[C@@H](N)CO)C(C)C)C(=O)N[C@@H](CCC(N)=O)C(=O)N[C@@H](CC(C)C)C(=O)N[C@@H](CCSC)C(=O)N[C@@H](Cc1cnc[nH]1)C(=O)N[C@@H](CC(N)=O)C(=O)N[C@@H](CC(C)C)C(=O)NCC(=O)N[C@@H](CCCCN)C(=O)N[C@@H](Cc1cnc[nH]1)C(=O)N[C@@H](CC(C)C)C(=O)N[C@@H](CC(N)=O)C(=O)N[C@@H](CO)C(=O)N[C@@H](CCSC)C(=O)N[C@@H](CCC(=O)O)C(=O)N[C@@H](CCCN=C(N)N)C(=O)N[C@H](C(=O)N[C@@H](CCC(=O)O)C(=O)N[C@@H](Cc1c[nH]c2ccccc12)C(=O)N[C@@H](CC(C)C)C(=O)N[C@@H](CCCN=C(N)N)C(=O)N[C@@H](CCCCN)C(=O)N[C@@H](CCCCN)C(=O)N[C@@H](CC(C)C)C(=O)N[C@@H](CCC(N)=O)C(=O)N[C@@H](CC(=O)O)C(=O)N[C@H](C(=O)N[C@@H](Cc1cnc[nH]1)C(=O)N[C@@H](CC(N)=O)C(=O)N[C@@H](Cc1ccccc1)C(=O)O)C(C)C)C(C)C [hPTH (1-34)],Fraction dose absorbed/delivered (%),"[1]; IV, 22.5 μg, hairless guinea pig",100%
same,dose absorbed/delivered,"[1]; SC, 19.5 μg",8.2 ± 2.9 µg
same,dose absorbed/delivered,"[1]; microprojection array, 40.0 μg",6.6 ± 1.8 µg
same,subjects with measurable PTH plasma levels,"[2]; bioavailability study, subcutaneous delivery (Forteo 40 μg), 20 subjects completed",15 subjects
same,subjects with measurable PTH plasma levels,"[2]; bioavailability study, transdermal delivery 30 μg, 20 subjects completed",20 subjects
same,subjects with measurable PTH plasma levels,"[2]; dose-finding study, subcutaneous injection (Forteo 20 μg), eight with usable data",three
same,subjects with measurable PTH plasma levels,"[2]; dose-finding study, transdermal delivery 30 μg, eight with usable data",eight
same,biological activity as evidenced by urinary cAMP excretion,[3],comparable to that following subcutaneous delivery
same,solubility in water (concentration),[4],> 20%
